In patent US20150087673A1, “METHODS FOR USING AND BIOMARKERS FOR AMPK-ACTIVATING COMPOUNDS” (RIGEL PHARMACEUTICALS, INC., priority 2013, published 2015):

These compounds were tested on AMPK (assay: AMPK activation assay (enzyme-linked immunosorbent assay)).
Format: cell-based
Method in brief: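 Kit-based immunoassay; compounds screened as activators; standard reagents and protocol.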

EC50 [nM] | Compound
500 to 1000 | CC(C)(C)C(=O)N1CCN(C(=O)c2ccc(C(=O)NC3CCN(Cc4ccc(C#N)cc4)CC3)nc2)CC1 [Compound 81, N-(1-(4-cyanobenzyl)piperidin-4-yl)-5-(4-pivaloylpiperazine-1-carbonyl)picolinamide]
< 500 | COc1ccc(C(=O)C2CCN(C(=O)c3ccc(C(=O)Nc4ccc(Oc5ccc(C#N)cc5)nc4)cn3)CC2)cc1 [Compound 460, N-(6-(4-cyanophenoxy)pyridin-3-yl)-6-(4-(4-methoxybenzoyl)piperidine-1-carbonyl)nicotinamide]
1000 to 5000 | COc1ccc(C(=O)C2CCN(c3ccc(C(=O)N4CCN(Cc5ccc(F)cc5)CC4)cn3)CC2)cc1 [Compound 189, (4-(4-fluorobenzyl)piperazin-1-yl)(6-(4-(4-methoxybenzoyl)piperidin-1-yl)pyridin-3-yl)methanone]
< 500 | CC(C)(C)OC(=O)NCCCc1cc(C(=O)N2CCN(Cc3ccc(F)cc3)CC2)cnc1C(=O)NC1CCN(Cc2ccc(C#N)cc2)CC1 [Compound 290, tert-butyl 3-(2-(1-(4-cyanobenzyl)piperidin-4-ylcarbamoyl)-5-(4-(4-fluorobenzyl)piperazine-1-carbonyl)pyridin-3-yl)propylcarbamate]
> 10000 | COc1ccc(OC2CCN(C(=O)c3ccc(C(=O)NC4CCN(Cc5ccc(C#N)cc5)CC4)cn3)CC2)c(N(C)C)c1 [Compound 385, N-(1-(4-cyanobenzyl)piperidin-4-yl)-6-(4-(2-(dimethylamino)-4-methoxyphenoxy)piperidine-1-carbonyl)nicotinamide]
500 to 1000 | NC(=O)c1ccc(CN2CCC(NC(=O)c3ccc(C(=O)N4CCN(Cc5ccc(F)cc5)CC4)cn3)CC2)cc1 [Compound 201, N-(1-(4-carbamoylbenzyl)piperidin-4-yl)-5-(4-(4-fluorobenzyl)piperazine-1-carbonyl)picolinamide]
< 500 | N#Cc1ccc(CN2CCC(NC(=O)c3ccc(C(=O)N4CCC(Oc5ccc(S(=O)(=O)C6CC6)cc5)CC4)nc3)CC2)cc1 [Compound 246, N-(1-(4-cyanobenzyl)piperidin-4-yl)-6-(4-(4-(cyclopropylsulfonyl)phenoxy)piperidine-1-carbonyl)nicotinamide]
< 500 | N#Cc1ccc(CN2CCC(NC(=O)c3ccc(N4CCC(Oc5ccc(C#N)cc5)CC4)cn3)CC2)cc1 [Compound 165, N-(1-(4-cyanobenzyl)piperidin-4-yl)-5-(4-(4-cyanophenoxy)piperidin-1-yl)picolinamide]
< 500 | CC(=O)c1ccc(Oc2ccc(NC(=O)c3ccc(C(=O)N4CCC(Oc5ccc(S(C)(=O)=O)cc5)CC4)cn3)cn2)cc1 [Compound 259, N-(6-(4-acetylphenoxy)pyridin-3-yl)-5-(4-(4-(methylsulfonyl)phenoxy)piperidine-1-carbonyl)picolinamide]
500 to 1000 | N#Cc1ccc(CN2CCC(NC(=O)c3ccc(C(=O)Nc4ccn(Cc5ccc(C#N)cc5)n4)cn3)CC2)cc1 [Compound 38, N^5-(1-(4-cyanobenzyl)-1H-pyrazol-3-yl)-N^2-(1-(4-cyanobenzyl)piperidin-4-yl)pyridine-2,5-dicarboxamide]
> 10000 | C[S+]([O-])c1ccc(C(=O)C2CCN(C(=O)c3ccc(C(=O)NC4CC[N+]([O-])(Cc5ccc(C#N)cc5)CC4)nc3)CC2)cc1 (stereo not drawn) [Compound 374, 1-(4-cyanobenzyl)-4-(5-(4-(4-(methylsulfinyl)benzoyl)piperidine-1-carbonyl)picolinamido)piperidine 1-oxide]
500 to 1000 | N#Cc1ccc(O[C@H]2CC[C@H](NC(=O)c3ccc(C(=O)N4CCC(Oc5ccc(F)cc5)CC4)cn3)CC2)cc1 [Compound 169, N-((trans)-4-(4-cyanophenoxy)cyclohexyl)-5-(4-(4-fluorophenoxy)piperidine-1-carbonyl)picolinamide]
< 500 | COc1ccc(O[C@H]2CC[C@@H](NC(=O)c3ccc(C(=O)N4CCC(Oc5ccc(C(F)(F)F)cc5)CC4)cn3)CC2)cc1 [Compound 185, N-((cis)-4-(4-methoxyphenoxy)cyclohexyl)-5-(4-(4-(trifluoromethyl)phenoxy)piperidine-1-carbonyl)picolinamide]
< 500 | O=C(NC1CCN(Cc2ccc(F)cc2)CC1)c1ccc(C(=O)N2CCC(Oc3ccc(C(F)(F)F)cc3)CC2)cn1 [Compound 179, N-(1-(4-fluorobenzyl)piperidin-4-yl)-5-(4-(4-(trifluoromethyl)phenoxy)piperidine-1-carbonyl)picolinamide]
< 500 | N#Cc1ccc(N2CCC(NC(=O)c3ccc(C(=O)N4CCN(Cc5ccc(F)cc5)CC4)nc3)CC2)cc1 [Compound 417, N-(1-(4-cyanophenyl)piperidin-4-yl)-6-(4-(4-fluorobenzyl)piperazine-1-carbonyl)nicotinamide]
1000 to 5000 | O=C(NC1CCN(Cc2ccccc2)CC1)c1ccc(Nc2cccc(Oc3ccccc3)c2)cn1 [Compound 112, N-(1-benzylpiperidin-4-yl)-5-(3-phenoxyphenylamino)picolinamide]

The remaining lines, values behind:

Compound | EC50 [nM]
N#Cc1ccc(CN2CCC(NC(=O)c3ccc(C(=O)N4CCC(Oc5ccc(NS(=O)(=O)C6CC6)cc5)CC4)nc3)CC2)cc1 [Compound 448, N-(1-(4-cyanobenzyl)piperidin-4-yl)-6-(4-(4-(cyclopropanesulfonamido)phenoxy)piperidine-1-carbonyl)nicotinamide] | 1000 to 5000
O=C(Nc1ccc(Oc2ccccc2)cc1)c1ccc(C(=O)N2CCN(Cc3ccc(F)cc3)CC2)cn1 [Compound 16, 5-(4-(4-fluorobenzyl)piperazine-1-carbonyl)-N-(4-phenoxyphenyl)picolinamide] | < 500
CS(=O)(=O)c1ccc(C(=O)C2CCN(C(=O)c3ccc(C(=O)NC4CCN(Cc5ccc(F)cc5)CC4)nc3)CC2)cc1 [Compound 225, N-(1-(4-fluorobenzyl)piperidin-4-yl)-5-(4-(4-(methylsulfonyl)benzoyl)piperidine-1-carbonyl)picolinamide] | < 500
N#Cc1ccc(CN2CCC(NC(=O)c3ccc(N4CCC(Oc5ccc(C#N)cc5)CC4)nn3)CC2)cc1 [Compound 351, N-(1-(4-cyanobenzyl)piperidin-4-yl)-6-(4-(4-cyanophenoxy)piperidin-1-yl) pyridazine-3-carboxamide] | < 500
N#Cc1ccc(CN2CCC(NC(=O)c3ncc(C(=O)N4CCN(Cc5ccc(F)cc5)CC4)cc3CCCNC(=O)CCOCCOCCOCCOCCNC(=O)CCCC[C@@H]3SC[C@@H]4NC(=O)N[C@@H]43)CC2)cc1 [Compound 291, N-(1-(4-cyanobenzyl)piperidin-4-yl)-3-(5,21-dioxo-25-((3aS,4S,6aR)-2-oxohexahydro-1H-thieno[3,4-d]imidazol-4-yl)-8,11,14,17-tetraoxa-4,20-diazapentacosyl)-5-(4-(4-fluorobenzyl)piperazine-1-carbonyl)picolinamide] | < 500
O=C(c1ccc(-c2ccc(OCc3ccccc3)cc2)nc1)N1CCN(Cc2ccc(F)cc2)CC1 [Compound 17, (4-(4-fluorobenzyl)piperazin-1-yl)(6-(4-(benzyloxy)phenyl)pyridin-3-yl)methanone] | > 10000
COc1ccc(CN2CCC(NC(=O)c3ccc(C(=O)N4CCN(Cc5ccc(F)cc5)CC4)nc3)CC2)cc1 [Compound 327, 6-(4-(4-fluorobenzyl)piperazine-1-carbonyl)-N-(1-(4-methoxybenzyl)piperidin-4-yl) nicotinamide] | < 500
O=C(Nc1ccc(Oc2ccc(F)cc2)nc1)c1ccc(C(=O)N2CCC(C(=O)c3ccc(N4CCOCC4)cc3)CC2)cn1 [Compound 379, N-(6-(4-fluorophenoxy)pyridin-3-yl)-5-(4-(4-morpholinobenzoyl)piperidine-1-carbonyl)picolinamide] | < 500
COc1cc(C#N)ccc1OC1CCN(c2ccc(C(=O)NC3CCN(Cc4ccc(C#N)cc4)CC3)nc2)CC1 [Compound 286, 5-(4-(4-cyano-2-methoxyphenoxy)piperidin-1-yl)-N-(1-(4-cyanobenzyl)piperidin-4-yl)picolinamide] | < 500
N#Cc1ccc(OC2CN(C(=O)c3ccc(C(=O)Nc4ccc(Oc5ccc(F)cc5)nc4)nc3)C2)cc1 [Compound 210, 5-(3-(4-cyanophenoxy)azetidine-1-carbonyl)-N-(6-(4-fluorophenoxy)pyridin-3-yl)picolinamide] | > 10000
COc1ccc(OC2CCCN(C(=O)c3ccc(C(=O)NC4CCN(Cc5ccc(C#N)cc5)CC4)nc3)C2)cc1 (stereo not drawn) [Compound 274, N-(1-(4-cyanobenzyl)piperidin-4-yl)-5-(3-(4-methoxyphenoxy)piperidine-1-carbonyl)picolinamide] | > 10000
O=C(Nc1ccc(Br)cc1)c1ccc(C(=O)N2CCN(Cc3ccc(F)cc3)CC2)cn1 [Compound 28, N-(4-bromophenyl)-5-(4-(4-fluorobenzyl)piperazine-1-carbonyl)picolinamide] | 500 to 1000
O=C(NC1CCN(Cc2cc(F)cc(F)c2)CC1)c1ccc(C(=O)N2CCN(Cc3ccc(F)cc3)CC2)cn1 [Compound 49, N-(1-(3,5-difluorobenzyl)piperidin-4-yl)-5-(4-(4-fluorobenzyl)piperazine-1-carbonyl)picolinamide] | < 500
CS(=O)(=O)c1ccc(C(=O)C2CCN(C(=O)c3ccc(C(=O)NC4CCN(Cc5ccc(N6CCCC6)cc5)CC4)cn3)CC2)cc1 [Compound 229, 6-(4-(4-(methylsulfonyl)benzoyl)piperidine-1-carbonyl)-N-(1-(4-(pyrrolidin-1-yl)benzyl)piperidin-4-yl)nicotinamide] | 1000 to 5000
N#Cc1ccc(CN2CCC(NC(=O)c3ccc(C(=O)N4C5CCC4CC(Oc4ccc(C#N)cc4)C5)cn3)CC2)cc1 [Compound 280, N-(1-(4-cyanobenzyl)piperidin-4-yl)-5-((1R,3r,5S)-3-(4-cyanophenoxy)-8-azabicyclo[3.2.1]octane-8-carbonyl)picolinamide] | < 500
COc1ccc(CN2CCC(NC(=O)c3ccc(C(=O)N4CCC(Oc5ccc(S(F)(F)(F)(F)F)cc5)CC4)nc3)CC2)cc1 [Compound 495, N-(1-(4-methoxybenzyl)piperidin-4-yl)-6-(4-(4-(pentafluorosulfanyl)phenoxy)piperidine-1-carbonyl)nicotinamide] | < 500
COc1ccc(C(=O)C2CCN(C(=O)c3ccc(C(=O)NC4CCN(Cc5ccc(N)cc5)CC4)cn3)CC2)cc1 [Compound 400, N-(1-(4-aminobenzyl)piperidin-4-yl)-6-(4-(4-methoxybenzoyl)piperidine-1-carbonyl)nicotinamide] | 1000 to 5000
